Data from patent publication US7897582B2, “Oligonucleotide compositions and methods for the modulation of the expression of B7 protein” (Isis Pharmaceuticals, Inc., priority 2003, dated 2011).
Strand notation (5' to 3'): a small letter for the sugar, then the base; units joined by * are phosphorothioate-linked, units joined directly phosphodiester-linked; [ ] holds rarer units or linkages, { } end groups; capitals alone tell only the bases. e = 2'-O-(2-methoxyethyl) (MOE); [5mC] = 5-methylcytosine; d = 2'-deoxy (DNA)

What was measured:
[1] = tested on: Mouse B7-1 mRNA; experiment: Mouse B7-1 mRNA expression, screened as in Example 4; type: cell-based; design: % mRNA INHIBITION: concentration or dose not given beside the values; conditions: Table 10
[2] = tested on: Mouse B7-2 mRNA; experiment: Mouse B7-2 mRNA expression, screened as in Example 4; type: cell-based; design: % mRNA INHIBITION: concentration or dose not given beside the values; conditions: for % mRNA INHIBITION: screened as in Example 4; for % mRNA EXPRESSION: screened as in Example 4, basal = 100.0%
Protocol: For ribonuclease protection assays, cells were harvested 18 hours after completion of oligonucleotide treatment using a Totally RNA™ kit (Ambion, Austin, Tex.). The probes for the assay were generated from plasmids pcB7-2 (linearized by digestion with Bgl II) and pTRI-b-actin (Ambion Inc., Austin, Tex.). In vitro transcription of the linearized plasmid from the SP6 promoter was performed in the presence of α-^32P-UTP (800 Ci/mmole) yielding an antisense RNA complementary to the 3′ end of B7-2 (position 1044-1391). The probe was gel-purified after treatment with DNase I to remove DNA template. Ribonuclease protection assays were carried out using an RPA II™ kit (Ambion) according to the manufacturer's directions. Total RNA (5 μg) was hybridized overnight, at 42° C., with 10^5 cpm of the B7-2 probe or a control beta-actin probe. The hybridization reaction was then treated, at 37° C. for 30 minutes, with 0.4 units of RNase A and 2 units of RNase T1. Protected RNA was precipitated, resuspended in 10 μL of gel loading buffer and electrophoresed on a 6% acrylamide gel with 50% w/v urea at 20 W. The gel was then exposed and the lanes quantitated using a PhosphorImager (Molecular Dynamics, Sunnyvale, Calif.) essentially according to the manufacturer's instructions.
Oligonucleotides were screened as described in Example 4.

[3] = tested on: DBA/1LacJ mice with collagen-induced arthritis; experiment: Collagen-induced arthritis (CIA) murine model; type: in vivo, mouse; conditions: CIA in DBA/1LacJ mice; for % Incidence: 10 mg/kg intraperitoneally daily from day -3, control 70%; for Peak day (day from onset of maximum swelling for each joint measure) / Severity (total clinical score divided by the total number of mice in the group): 10 mg/kg intraperitoneally daily; for Peak day (day from onset of maximum swelling for each joint measure): control 6.7 ± 2.9; for Severity (total clinical score divided by the total number of mice in the group): limbs graded 0-4, control 3.2 ± 1.1
Protocol: Collagen-induced arthritis (CIA) was used as a murine model for arthritis (Mussener, A., et al., Clin. Exp. Immunol., 1997, 107, 485-493). Female DBA/1LacJ mice (Jackson Laboratories, Bar Harbor, Me.) between the ages of 6 and 8 weeks were used to assess the activity of B7-1 antisense oligonucleotides.
On day 0, the mice were immunized at the base of the tail with 100 μg of bovine type II collagen which is emulsified in Complete Freund's Adjuvant (CFA). On day 7, a second booster dose of collagen was administered by the same route. On day 14, the mice were injected subcutaneously with 100 μg of LPS. Oligonucleotide was administered intraperitoneally daily (10 mg/kg bolus) starting on day −3 (three days before day 0) and continuing for the duration of the study. Oligonucleotide 17456 (SEQ ID NO. 173) is a fully phosphorothioated analog of 18122.
Weights were recorded weekly. Mice were inspected daily for the onset of CIA. Paw widths are rear ankle widths of affected and unaffected joints were measured three times a week using a constant tension caliper. Limbs were clinically evaluated and graded on a scale from 0-4 (with 4 being the highest).

[4] = tested on: murine B7-2 (mB7-2); experiment: Murine B7-2 cell surface expression in transfected COS-7 cells by flow cytometry; type: cell-based, mouse; conditions: mouse B7-2 cell surface expression
Excerpt: (§1) Oligonucleotides (see Table 4) capable of inhibiting expression of murine B7-2 transiently expressed in COS-7 cells were identified in the following manner. A series of phosphorothioate oligonucleotides complementary to murine B7-2 (mB7-2) cDNA were screened for their ability to reduce mB7-2 levels (measured by flow cytometry as in Example 2, except that a conjugated anti-mB7-2 antibody (i.e., anti-mCD86-PE, PharMingen, San Diego, Calif.) in COS-7 cells transfected with an mB7-2 cDNA clone. Anti-mB7-2 antibody may also be obtained from the hybridoma deposited at the ATCC under accession No. HB-253. Oligonucleotides (see Table 2) capable of modulating murine B7-1 expression are isolated in like fashion, except that a conjugated anti-mB7-1 antibody is used in conjunction with COS-7 cells transfected with an mB7-1 cDNA clone.
(§2) B7 antisense oligonucleotides were tested for their effect on cell surface expression of both B7-1 and B7-2. Cell surface expression was measured as described in Example 1. Experiments were done for both human B7 and mouse B7.

[5] = tested on: murine B7-1; experiment: Murine B7-1 cell surface expression in transfected COS-7 cells by flow cytometry; type: cell-based; conditions: mouse B7-1 cell surface expression, basal = 100%
Excerpt: as §1, §2

[6] = tested on: BALB/c mice with heart allograft; experiment: Murine heart allograft rejection model; type: in vivo, mouse
Protocol: A murine model for evaluating compounds for their ability to inhibit heart allograft rejection has been previously described (Stepkowski et al., J. Immunol., 1994, 153, 5336). This model was used to evaluate the immunosuppressive capacity of antisense oligonucleotides to B7 proteins alone or in combination with antisense oligonucleotides to intercellular adhesion molecule-1 (ICAM-1).
Heart allograft rejection studies and oligonucleotide treatments of BALB/c mice were performed essentially as previously described (Stepkowski et al., J. Immunol., 1994, 153, 5336). Antisense oligonucleotides used included ISIS 11696, ISIS 3082 (targeted to ICAM-1) and ISIS 1082 (a control oligonucleotide targeted to the herpes virus UL-13 gene sequence). Dosages used were 1, 2, 2.5, 5 or 10 mg/kg of individual oligonucleotide (as indicated below); when combinations of oligonucleotides were administered, each oligonucleotide was given at a dosage of 1, 5 or 10 mg/kg (total oligonucleotide dosages of 2, 10 and 20 mg/kg, respectively). The survival times of the transplanted hearts and their hosts were monitored and recorded.

Substance | % mRNA EXPRESSION [1] [%] | % mRNA INHIBITION [1] [%] | other results
18122 (antisense eA*eG*eG*e[5mC]*e[5mC]*d[5mC]*dA*dG*d[5mC]*dA*dA*dA*d[5mC]*dT*dT*eG*e[5mC]*e[5mC]*e[5mC]*eG) [compound 18122] | 42.0 | 58.0 | 
18115 (antisense eA*e[5mC]*eT*eG*e[5mC]*dG*d[5mC]*d[5mC]*dG*dA*dA*dT*d[5mC]*d[5mC]*dT*eG*e[5mC]*e[5mC]*e[5mC]*e[5mC]) [compound 18115] | 33.5 | 66.5 | 
18089 (antisense eG*eT*e[5mC]*eA*eA*dA*dG*d[5mC]*dT*d[5mC]*dG*dT*dG*d[5mC]*dG*eG*e[5mC]*e[5mC]*e[5mC]*eA) [compound 18089] |  |  | % mRNA INHIBITION [2]: 79.1%; % mRNA EXPRESSION [2]: 20.9%; % Incidence [3]: 44.4%; Peak day (day from onset of maximum swelling for each joint measure) [3]: 6.8 ± 2.2 days; Severity (total clinical score divided by the total number of mice in the group) [3]: 2.3 ± 1.3; % B7-2 EXPRESSION [4]: 36%; % B7-1 EXPRESSION [5]: 85%
18117 (antisense e[5mC]*eT*eG*eT*eT*dG*dT*dT*dT*dG*dT*dT*dT*d[5mC]*dT*e[5mC]*eT*eG*e[5mC]*eT) [compound 18117] | 46.7 | 53.3 | 
18112 (antisense eG*e[5mC]*eA*eG*eG*dT*dA*dA*dT*d[5mC]*d[5mC]*dT*dT*dT*dT*eA*eG*eT*eG*eT) [compound 18112] | 42.0 | 58.0 | 
18097 (antisense eT*eG*e[5mC]*e[5mC]*eA*dA*dG*d[5mC]*d[5mC]*d[5mC]*dA*dT*dG*dG*dT*eG*e[5mC]*eA*eT*e[5mC]) [compound 18097] |  |  | % mRNA INHIBITION [2]: 75.5%; % mRNA EXPRESSION [2]: 24.5%; % B7-2 EXPRESSION [4]: 28%; % B7-1 EXPRESSION [5]: 87%
ISIS 1082: control oligonucleotide targeted to the herpes virus UL-13 gene sequence; SEQ ID NO: 102 (125) (antisense GCCGAGGTCCATGTCGTACGC; listed as DNA, chemistry not given here) |  |  | mean survival time ([6]; 5 mg/kg/day for 7 days): 7.1 ± 0.7 days; mean survival time ([6]; 10 mg/kg/day for 7 days): 7.0 ± 0.8 days
18109 (antisense e[5mC]*eA*eG*e[5mC]*eA*d[5mC]*dA*dA*dA*dG*dA*dG*dA*dA*dG*eA*eA*eT*eG*eA) [compound 18109] | 45.5 | 54.5 | 
18120 (antisense eT*e[5mC]*e[5mC]*eA*e[5mC]*dT*dT*d[5mC]*dA*dG*dT*d[5mC]*dA*dT*d[5mC]*eA*eA*eG*e[5mC]*eA) [compound 18120] | 26.7 | 73.3 | 
18121 (antisense eT*eG*e[5mC]*eT*e[5mC]*dA*dA*dT*dA*d[5mC]*dT*d[5mC]*dT*d[5mC]*dT*eT*eT*eT*eT*eA) [compound 18121] | 114.0 |  | 
11696 (antisense dG*dG*dA*dT*dT*dG*dC*dC*dA*dA*dG*dC*dC*dC*dA*dT*dG*dG*dT*dG) [compound 11696] |  |  | % Incidence [3]: 37.5%; Peak day (day from onset of maximum swelling for each joint measure) [3]: 11.6 ± 4.5 days; Severity (total clinical score divided by the total number of mice in the group) [3]: 3.4 ± 1.8
18118 (antisense eT*eG*eT*eT*e[5mC]*dA*dG*d[5mC]*dT*dA*dA*dT*dG*d[5mC]*dT*eT*e[5mC]*eT*eT*e[5mC]) [compound 18118] | 31.7 | 68.3 | 
18123 (antisense eA*eA*e[5mC]*eG*eG*d[5mC]*dA*dA*dG*dG*d[5mC]*dA*dG*d[5mC]*dA*eA*eT*eA*e[5mC]*e[5mC]) [compound 18123] | 42.0 | 58.0 | 
18113 (antisense eG*eT*eG*eA*eA*dG*dT*d[5mC]*d[5mC]*dT*d[5mC]*dT*dG*dA*d[5mC]*eA*e[5mC]*eG*eT*eG) [compound 18113] | 24.6 | 75.4 | % B7-2 EXPRESSION [4]: 91%; % B7-1 EXPRESSION [5]: 25%
18107 (antisense eT*eG*eG*eA*eG*d[5mC]*dT*dT*dA*dG*dG*d[5mC]*dA*d[5mC]*d[5mC]*eT*e[5mC]*e[5mC]*eT*eA) [compound 18107] | 58.0 | 42.0 | 
18116 (antisense eT*eT*eG*eA*eT*dG*dA*dT*dG*dA*d[5mC]*dA*dA*d[5mC]*dG*eA*eT*eG*eA*e[5mC]) [compound 18116] | 65.6 | 34.4 | 
18114 (antisense e[5mC]*eG*eA*eA*eT*d[5mC]*d[5mC]*dT*dG*d[5mC]*d[5mC]*d[5mC]*d[5mC]*dA*dA*eA*eG*eA*eG*e[5mC]) [compound 18114] | 25.6 | 74.4 | 
18104 (antisense eA*eG*eA*eG*eA*dA*dA*d[5mC]*dT*dA*dG*dT*dA*dA*dG*eA*eG*eT*e[5mC]*eT) [compound 18104] | 60.0 | 40.0 | 
18106 (antisense TCGAGAAACAGAGATGTAGA; listed as DNA, chemistry not fully specified) [compound 18106] | 51.0 | 49.0 | 
18119 (antisense eG*eT*eT*eA*eA*d[5mC]*dT*d[5mC]*dT*dA*dT*d[5mC]*dT*dT*dG*eT*eG*eT*e[5mC]*eA) [compound 18119] | 24.0 | 76.0 | % B7-2 EXPRESSION [4]: 98%; % B7-1 EXPRESSION [5]: 27%
18111 (antisense eA*eA*eG*eT*e[5mC]*d[5mC]*dG*dG*dT*dT*d[5mC]*dT*dT*dA*dT*eA*e[5mC]*eT*e[5mC]*eG) [compound 18111] | 38.0 | 62.0 | 
ISIS 3082: ICAM-1 oligonucleotide, previously described (Stepkowski et al.); SEQ ID NO: 101 (antisense TGCATCCCCCAGGCCACCAT; listed as DNA, chemistry not given here) |  |  | mean survival time ([6]; 1 mg/kg/day for 7 days): 11.0 ± 0.0 days; mean survival time ([6]; 2.5 mg/kg/day for 7 days): 12.0 ± 2.7 days; mean survival time ([6]; 5 mg/kg/day for 7 days): 14.1 ± 2.7 days; mean survival time ([6]; 10 mg/kg/day for 7 days): 15.3 ± 5.8 days
18105 (antisense eT*eG*eG*e[5mC]*eA*dT*d[5mC]*d[5mC]*dA*d[5mC]*d[5mC]*d[5mC]*dG*dG*d[5mC]*eA*eG*eA*eT*eG) [compound 18105] | 32.0 | 68.0 | 
